This note sets out measurements from article PMC6155437 (Molecules : A Journal of Synthetic Chemistry and Natural …, 2017).

What all share (format): in vitro ADME
The target in one data set is T1, CYP2C9 (Homo sapiens, UniProt P11712).
T1 construct: tissue Corning Life Sciences; host or cells: pooled human liver microsomes (150 donors)
Description: CYP2C9 diclofenac 4′-hydroxylase inhibition in human liver microsomes. The method, then:
(§1) After a 3-min pre-incubation at 37 °C, the reactions were initiated by addition of NADPH and incubation proceeded for 15 min at 37 °C in a shaking water bath. […] The incubation mixtures were centrifuged (13,000× g, 4 min, 4 °C). All assays were performed in triplicate and mean values were used in calculations.
(§2) Each reaction was initiated by adding the seven-CYP probe substrate cocktail.
(§3) The reactions were initiated by addition of NADPH at 37 °C and stopped after 10 min by placing the incubation tubes on ice and adding 100 μL of ice-cold methanol containing an internal standard (d9-1-hydroxybufuralol). The incubation mixtures were centrifuged (13,000× g, 4 min, 4 °C) and then 50 μL of the supernatant was diluted with 50 μL of water. Aliquots (5 μL) of the diluted supernatants were analyzed by LC-MS/MS.
(§4) The metabolites formed from CYP substrates were quantified simultaneously by a LC-MS/MS method described previously. The ESI source settings in positive-ion mode for metabolite ionization were: capillary voltage, 4200 V; vaporizer temperature, 350 °C; capillary temperature, 330 °C; sheath gas pressure, 35 psi; and auxiliary gas pressure, 15 psi. Quantification was performed by selected reaction monitoring (SRM) of the [M + H]^+ ion and the related product ion for each metabolite: acetaminophen, 152.1 > 110.3; N-desethylamodiaquine, 328.1 > 283.0; 7-hydroxycoumarin, 163.0 > 107.2; 4-hydroxybupropion, 256.1 > 238.0; 4′-hydroxydiclofenac, 312.0 > 231.1; 4′-hydroxy-mephenytoin; 235.1 > 150.1; 1′-hydroxybufuralol, 278.1 > 186.1; 1′-hydroxymidazolam, 341.9 > 324.0; ^13C2,^15N-acetaminophen 155.1 > 111.2; and d9-1′-hydroxybufuralol, 287.2 > 187.0. Analytical data were processed using Xcalibur software (version 2.1, Thermo Scientific).
(§5) The apparent kinetic parameters for inhibitory potential (Ki and kinact values) and inhibition mode were estimated from the fitted curves using the Enzyme Kinetics program (ver. 1.1; Systat Software Inc., San Jose, CA, USA).

In a further data set the target is T2, UGT1A1 (Homo sapiens, UniProt P22309).
T2 construct: pooled human liver microsomes (0.2 mg/mL), 5 mM UDPGA; tissue Corning Life Sciences; host or cells: pooled human liver microsomes (150 donors)
T2 sequence (P22309 26-533): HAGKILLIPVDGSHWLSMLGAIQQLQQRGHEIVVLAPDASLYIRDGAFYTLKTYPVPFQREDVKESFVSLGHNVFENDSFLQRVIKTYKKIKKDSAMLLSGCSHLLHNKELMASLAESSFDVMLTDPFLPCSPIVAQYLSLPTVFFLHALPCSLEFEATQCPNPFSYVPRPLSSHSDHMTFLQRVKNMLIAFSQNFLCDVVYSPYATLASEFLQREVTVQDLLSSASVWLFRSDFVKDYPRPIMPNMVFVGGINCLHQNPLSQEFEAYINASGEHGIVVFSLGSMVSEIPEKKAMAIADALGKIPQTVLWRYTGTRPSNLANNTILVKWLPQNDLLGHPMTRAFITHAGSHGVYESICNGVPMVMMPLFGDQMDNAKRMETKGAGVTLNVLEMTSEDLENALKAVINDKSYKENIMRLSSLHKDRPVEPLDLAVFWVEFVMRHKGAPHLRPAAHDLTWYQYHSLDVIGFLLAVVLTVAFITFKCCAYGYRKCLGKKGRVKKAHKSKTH
Nature of the data set: UGT1A1 SN-38 glucuronidation inhibition in ultrapool human liver microsomes. The note with it: at 50 µM. The method, then:
(§6) After 3 min of pre-incubation at 37 °C, the reactions were initiated by addition of UDPGA; incubation continued for 60 min at 37 °C in a shaking water bath. The reaction was stopped by placing the tubes on ice and adding 50 µL ice-cold acetonitrile containing internal standards (propofol glucuronide for chenodeoxycholic acid 24-acyl-β-glucuronide and mycophenolic acid glucuronide, and meloxicam for SN-38 glucuronide, trifluoperazine glucuronide, N-acetylserotonin β-D-glucuronide, and naloxone 3-β-D-glucuronide). The incubation mixtures were centrifuged (13,000× g, 4 min, 4 °C). All assays were performed in triplicate and average values were used in calculations.
(§7) The metabolites formed from the six UGT cocktail substrates were measured simultaneously using the LC-MS/MS method. The ESI source settings in both positive- and negative-ion modes for metabolite ionization were: capillary voltage, 4200 V; vaporizer temperature, 350 °C; capillary temperature, 330 °C; sheath gas pressure, 35 psi; and auxiliary gas pressure, 15 psi. […] Data were processed using Xcalibur software.
as §5
(In general: Liver microsomes are vesicles of endoplasmic reticulum, rich in cytochrome P450 enzymes.)

A further data set concerns the target T3, UGT2B7 (Homo sapiens, UniProt P16662).
T3 construct: tissue Corning Life Sciences; host or cells: pooled human liver microsomes (150 donors)
T3 sequence (P16662 24-529): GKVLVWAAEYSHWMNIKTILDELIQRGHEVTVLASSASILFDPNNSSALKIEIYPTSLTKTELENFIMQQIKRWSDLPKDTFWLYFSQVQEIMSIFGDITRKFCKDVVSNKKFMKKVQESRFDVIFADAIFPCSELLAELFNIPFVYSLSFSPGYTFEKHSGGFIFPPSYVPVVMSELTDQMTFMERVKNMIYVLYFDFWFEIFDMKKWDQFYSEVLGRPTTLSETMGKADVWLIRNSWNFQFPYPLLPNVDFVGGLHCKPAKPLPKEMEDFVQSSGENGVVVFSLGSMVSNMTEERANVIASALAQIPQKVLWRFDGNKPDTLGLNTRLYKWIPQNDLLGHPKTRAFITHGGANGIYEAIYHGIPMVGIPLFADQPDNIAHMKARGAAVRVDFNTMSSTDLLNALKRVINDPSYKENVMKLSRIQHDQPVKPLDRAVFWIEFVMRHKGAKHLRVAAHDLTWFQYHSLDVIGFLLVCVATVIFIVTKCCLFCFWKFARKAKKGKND
Nature of the data set: UGT2B7 naloxone 3-β-D-glucuronidation inhibition in human liver microsomes. The procedure:
as §6
The reactions were initiated by addition of UDPGA at 37 °C and stopped after 60 min by placing the incubation tubes on ice and adding 100 μL of ice-cold methanol containing propofol glucuronide (internal standard for UGT1A3) or meloxicam (internal standard for UGT2B7). The incubation mixtures were centrifuged (13,000× g, 4 min, 4 °C), and then, 50 μL of the supernatant was diluted with 50 μL of water. Aliquots (5 μL) of the diluted supernatants were analyzed by LC-MS/MS.
as §7, §5

For the next data set, the target named is CYP3A4 (Homo sapiens, UniProt P08684). Nature of the data set: CYP3A4 midazolam 1′-hydroxylase inhibition in human liver microsomes. Details: tissue Corning Life Sciences; host or cells: pooled human liver microsomes (150 donors). The procedure: as §1, §2, §3, §4, §5
CYP3A4, sequence (P08684 whole entry): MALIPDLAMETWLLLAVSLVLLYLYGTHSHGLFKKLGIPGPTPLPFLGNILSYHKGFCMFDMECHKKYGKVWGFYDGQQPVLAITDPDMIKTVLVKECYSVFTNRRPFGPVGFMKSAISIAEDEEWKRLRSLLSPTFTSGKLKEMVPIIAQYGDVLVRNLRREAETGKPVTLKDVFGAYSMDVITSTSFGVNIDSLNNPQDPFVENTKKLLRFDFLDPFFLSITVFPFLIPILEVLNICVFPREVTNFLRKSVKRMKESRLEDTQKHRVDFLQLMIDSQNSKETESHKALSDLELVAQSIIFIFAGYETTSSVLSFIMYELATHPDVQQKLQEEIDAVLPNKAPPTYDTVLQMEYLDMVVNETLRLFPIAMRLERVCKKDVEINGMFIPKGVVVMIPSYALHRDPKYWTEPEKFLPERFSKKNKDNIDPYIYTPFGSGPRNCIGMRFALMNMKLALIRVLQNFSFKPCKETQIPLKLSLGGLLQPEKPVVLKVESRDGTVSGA

Entries after “also recorded” stand apart in the source; their conditions may differ.

T1 sequence (P11712 whole entry): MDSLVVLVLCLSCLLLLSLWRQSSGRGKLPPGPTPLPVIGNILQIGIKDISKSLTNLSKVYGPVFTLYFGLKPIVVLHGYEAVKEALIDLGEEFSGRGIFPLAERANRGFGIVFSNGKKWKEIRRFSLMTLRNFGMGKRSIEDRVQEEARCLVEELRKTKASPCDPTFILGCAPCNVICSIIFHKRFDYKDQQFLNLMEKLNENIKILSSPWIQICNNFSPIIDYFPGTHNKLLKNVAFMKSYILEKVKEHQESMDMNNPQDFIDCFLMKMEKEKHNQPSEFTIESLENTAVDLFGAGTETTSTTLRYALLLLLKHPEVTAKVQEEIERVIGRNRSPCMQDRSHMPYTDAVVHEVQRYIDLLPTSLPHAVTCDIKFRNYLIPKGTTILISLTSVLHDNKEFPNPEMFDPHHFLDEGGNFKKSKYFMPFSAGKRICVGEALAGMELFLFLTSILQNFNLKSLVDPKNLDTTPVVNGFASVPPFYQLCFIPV

In the case of `O=C(c1cccc2ccccc12)c1cn(CCCCCF)c2ccccc12` [AM-2201, 1-(5-fluoropentyl-1H-indol-3-yl)-(naphthalene-1-yl)methanone], the values for the Ki at CYP2C9, at UGT2B7 and at CYP3A4 were 3.9 µM, 10 µM and 4 µM, respectively. Further, the “Inhibition Mode” value on CYP2C9 (CYP2C9 diclofenac 4′-hydroxylation) is reported as “competitively inhibited; also recorded: competitive”; at UGT2B7 (UGT2B7 naloxone 3-β-D-glucuronidation) it was “mixed inhibition”; on CYP3A4 (CYP3A4 midazolam 1′-hydroxylation), “competitively inhibited; also recorded: competitive”. In addition, the 50% inhibitory concentration (IC50) (as a rule, the concentration at which inhibition is half-maximal) against CYP2C9 (IC50 (μM) No Preincubation, Diclofenac 4′-hydroxylase, CYP2C9, human liver microsomes, 10 μM diclofenac) stood at 11.9 µM; on CYP2C9 (IC50 (μM) With Preincubation, Diclofenac 4′-hydroxylase, CYP2C9, 30 min preincubation with NADPH) it was 11.9 µM; against CYP2C9 (IC50, CYP2C9-catalyzed diclofenac 4′-hydroxylation, abstract), 3.9 µM; at UGT2B7 (IC50, UGT2B7-catalyzed naloxone 3-glucuronidation, abstract), 10 µM; on UGT2B7 (IC50, UGT2B7 naloxone 3-β-D-glucuronidation, 1 μM naloxone, human liver microsomes), 14.5 µM; at CYP3A4 (IC50 (μM) No Preincubation, Midazolam 1′-hydroxylase, CYP3A4, human liver microsomes, 2.5 μM midazolam), 6.9 µM. Moreover, the IC50 turned out to be 3.8 µM against CYP3A4 (IC50 (μM) With Preincubation, Midazolam 1′-hydroxylase, CYP3A4, 30 min preincubation with NADPH) and 4 µM on CYP3A4 (IC50, CYP3A4-catalyzed midazolam 1′-hydroxylation, abstract). The “inhibition of UGT1A1-catalyzed SN-38 glucuronidation” value against UGT1A1 is recorded as “negligibly inhibited”.
